# Experimental data from PMC5218480 (PLoS ONE, 2017).
# Test system: MV-4-11 cells
# Assay: Gene expression microarray analysis (Affymetrix PrimeView) and GSEA
# Type: cell-based, human
# Design: RFU PODN (11730768_x_at) / Fold change /veh PODN (11730768_x_at) / RFU LINC00158 (11744669_a_at) / Fold change /veh LINC00158 (11744669_a_at) / RFU DUSP10 (11751237_a_at) / Fold change /veh DUSP10 (11751237_a_at) / RFU ID3 (11757404_x_at) / Fold change /veh ID3 (11757404_x_at) / RFU PLEKHG5 (11737974_s_at) / Fold change /veh PLEKHG5 (11737974_s_at) / RFU LRRC4B (11730491_at) / Fold change /veh LRRC4B (11730491_at) / RFU GIMAP4 (11747438_a_at) / Fold change /veh GIMAP4 (11747438_a_at) / RFU KRT8 (11758183_x_at) / Fold change /veh KRT8 (11758183_x_at) / RFU CNN1 (11734310_a_at) / Fold change /veh CNN1 (11734310_a_at) / RFU VPS37D (11726825_at) / Fold change /veh VPS37D (11726825_at) / RFU C10orf10 (11716522_x_at) / Fold change /veh C10orf10 (11716522_x_at) / RFU KIR2DL2 /// KIR2DL4 /// KIR2DL5A /// KIR2DL5B /// KIR2DS1 /// KIR2DS2 /// KIR2DS3 /// KIR2DS4 /// KIR3DL3 /// KIR3DL3 /// KIR3DS1 (11738374_at) / Fold change /veh KIR2DL2 /// KIR2DL4 /// KIR2DL5A /// KIR2DL5B /// KIR2DS1 /// KIR2DS2 /// KIR2DS3 /// KIR2DS4 /// KIR3DL3 /// KIR3DL3 /// KIR3DS1 (11738374_at) / RFU C1QL1 (11718748_at) / Fold change /veh C1QL1 (11718748_at) / RFU TMPRSS4 (11747572_a_at) / Fold change /veh TMPRSS4 (11747572_a_at) / RFU HAMP (11756126_x_at) / Fold change /veh HAMP (11756126_x_at) / RFU RNFT2 (11725882_a_at) / Fold change /veh RNFT2 (11725882_a_at) / RFU NR4A2 (11747474_a_at) / Fold change /veh NR4A2 (11747474_a_at) / RFU ABCC12 (11746883_a_at) / Fold change /veh ABCC12 (11746883_a_at) / RFU TMEM136 (11760407_x_at) / Fold change /veh TMEM136 (11760407_x_at) / RFU CLDN22 /// WWC2 (11732394_at) / Fold change /veh CLDN22 /// WWC2 (11732394_at) / RFU HLA-DPB1 (11760878_x_at) / Fold change /veh HLA-DPB1 (11760878_x_at) / RFU SPINT1 (11716480_a_at) / Fold change /veh SPINT1 (11716480_a_at) / RFU GAP43 (11754022_s_at) / Fold change /veh GAP43 (11754022_s_at) / RFU A4GNT (11735810_at) / Fold change /veh A4GNT (11735810_at) / RFU PRB3 (11715151_x_at) / Fold change /veh PRB3 (11715151_x_at) / RFU TUBB4B (11761932_at) / Fold change /veh TUBB4B (11761932_at) / RFU CAPN14 (11732068_a_at) / Fold change /veh CAPN14 (11732068_a_at) / RFU TMCC2 (11721928_a_at) / Fold change /veh TMCC2 (11721928_a_at) / RFU IRGQ (11745062_a_at) / Fold change /veh IRGQ (11745062_a_at) / RFU FAM174B (11720279_a_at) / Fold change /veh FAM174B (11720279_a_at) / RFU TMPRSS4 (11748680_a_at) / Fold change /veh TMPRSS4 (11748680_a_at) / RFU FAM212B (11763350_a_at) / Fold change /veh FAM212B (11763350_a_at) / RFU PLEKHG5 (11743358_a_at) / Fold change /veh PLEKHG5 (11743358_a_at) / RFU ZSCAN30 (11745921_a_at) / Fold change /veh ZSCAN30 (11745921_a_at) / RFU CMKLR1 (11741424_a_at) / Fold change /veh CMKLR1 (11741424_a_at) / RFU LOC101060620 /// MAPK8IP1 (11723275_at) / Fold change /veh LOC101060620 /// MAPK8IP1 (11723275_at) / RFU SPTSSB (11747773_x_at) / Fold change /veh SPTSSB (11747773_x_at) / RFU PRSS12 (11739890_at) / Fold change /veh PRSS12 (11739890_at) / RFU BIN1 (11741810_x_at) / Fold change /veh BIN1 (11741810_x_at) / RFU WNT11 (11732464_a_at) / Fold change /veh WNT11 (11732464_a_at) / RFU C10orf10 (11716521_a_at) / Fold change /veh C10orf10 (11716521_a_at) / RFU C5orf56 (11738089_at) / Fold change /veh C5orf56 (11738089_at) / RFU CYB561 (11721691_x_at) / Fold change /veh CYB561 (11721691_x_at) / RFU ANKRD19P (11752326_a_at) / Fold change /veh ANKRD19P (11752326_a_at) / RFU OR2T12 /// OR2T33 /// OR2T8 (11738714_s_at) / Fold change /veh OR2T12 /// OR2T33 /// OR2T8 (11738714_s_at) / RFU VCAN (11748164_a_at) / Fold change /veh VCAN (11748164_a_at) / RFU JSRP1 (11732532_at) / Fold change /veh JSRP1 (11732532_at) / RFU KRTAP10-11 (11738290_x_at) / Fold change /veh KRTAP10-11 (11738290_x_at) / RFU MYO3A (11730013_a_at) / Fold change /veh MYO3A (11730013_a_at) / RFU EBF3 (11725865_a_at) / Fold change /veh EBF3 (11725865_a_at) / RFU CAMK2N1 (11719241_x_at) / Fold change /veh CAMK2N1 (11719241_x_at) / RFU C5orf56 (11738088_a_at) / Fold change /veh C5orf56 (11738088_a_at) / RFU OLFML3 (11715873_a_at) / Fold change /veh OLFML3 (11715873_a_at) / RFU LOC100653217 /// NTM (11731650_a_at) / Fold change /veh LOC100653217 /// NTM (11731650_a_at) / RFU MAPK11 (11762145_a_at) / Fold change /veh MAPK11 (11762145_a_at) / RFU FIZ1 (11724087_x_at) / Fold change /veh FIZ1 (11724087_x_at) / RFU OASL (11726364_x_at) / Fold change /veh OASL (11726364_x_at) / RFU SOX15 (11748057_x_at) / Fold change /veh SOX15 (11748057_x_at) / RFU CD79A (11719716_a_at) / Fold change /veh CD79A (11719716_a_at) / RFU HIST1H1D (11736915_at) / Fold change /veh HIST1H1D (11736915_at) / RFU CASKIN2 (11723855_a_at) / Fold change /veh CASKIN2 (11723855_a_at) / RFU LOC730098 (11760151_x_at) / Fold change /veh LOC730098 (11760151_x_at) / RFU OR4N2 (11742367_at) / Fold change /veh OR4N2 (11742367_at) / RFU PRRT2 (11749266_a_at) / Fold change /veh PRRT2 (11749266_a_at) / RFU SNX32 (11753110_a_at) / Fold change /veh SNX32 (11753110_a_at) / RFU CDHR5 (11726645_a_at) / Fold change /veh CDHR5 (11726645_a_at) / RFU RCAN1 (11760418_a_at) / Fold change /veh RCAN1 (11760418_a_at) / RFU FAM167A (11723789_a_at) / Fold change /veh FAM167A (11723789_a_at) / RFU FAM26E (11764081_at) / Fold change /veh FAM26E (11764081_at) / RFU ISYNA1 (11749810_s_at) / Fold change /veh ISYNA1 (11749810_s_at) / RFU ACY1 (11761880_at) / Fold change /veh ACY1 (11761880_at) / RFU 11764098_at / Fold change /veh 11764098_at / RFU SAMD14 (11745864_x_at) / Fold change /veh SAMD14 (11745864_x_at) / RFU NPB (11741838_a_at) / Fold change /veh NPB (11741838_a_at) / RFU TMPRSS6 (11731388_a_at) / Fold change /veh TMPRSS6 (11731388_a_at) / RFU KRTAP10-2 (11738614_at) / Fold change /veh KRTAP10-2 (11738614_at) / RFU ARHGAP8 /// PRR5-ARHGAP8 (11727945_x_at) / Fold change /veh ARHGAP8 /// PRR5-ARHGAP8 (11727945_x_at) / RFU KRTAP5-7 /// NADSYN1 (11734609_at) / Fold change /veh KRTAP5-7 /// NADSYN1 (11734609_at) / RFU RASL12 (11751679_a_at) / Fold change /veh RASL12 (11751679_a_at) / RFU CDKN2B (11736163_a_at) / Fold change /veh CDKN2B (11736163_a_at) / RFU PRF1 (11729649_at) / Fold change /veh PRF1 (11729649_at) / RFU, ZNF638 /// ZNF638-IT1 / Fold change vs veh, ZNF638 /// ZNF638-IT1 / RFU, PANK3 / Fold change vs veh, PANK3 / RFU, SH3YL1 / Fold change vs veh, SH3YL1 / RFU, ZEB2 / Fold change vs veh, ZEB2 / RFU, NRIP1 / Fold change vs veh, NRIP1 / RFU, PTTG1IP / Fold change vs veh, PTTG1IP / RFU, CAPN2 / Fold change vs veh, CAPN2 / RFU, MED14 / Fold change vs veh, MED14 / RFU, SNORA58 / Fold change vs veh, SNORA58 / RFU, C1orf63 / Fold change vs veh, C1orf63 / RFU, LRRFIP1 / Fold change vs veh, LRRFIP1 / RFU, NDUFAF7 / Fold change vs veh, NDUFAF7 / RFU, SLC12A2 / Fold change vs veh, SLC12A2 / RFU, IBTK / Fold change vs veh, IBTK / RFU, ESF1 / Fold change vs veh, ESF1 / Fold change vs veh, TMEM50B / RFU, TAOK1 / Fold change vs veh, TAOK1 / RFU, ACBD3 / Fold change vs veh, ACBD3 / RFU, TMA16 / Fold change vs veh, TMA16 / RFU, RWDD3 / Fold change vs veh, RWDD3 / RFU, BCAT1 / Fold change vs veh, BCAT1 / RFU, EDEM3 / Fold change vs veh, EDEM3 / RFU, TMEM33 / Fold change vs veh, TMEM33 / RFU, WDR75 / Fold change vs veh, WDR75 / RFU, AHCTF1 / Fold change vs veh, AHCTF1 / RFU, TFRC / Fold change vs veh, TFRC / RFU, ZDHHC17 / Fold change vs veh, ZDHHC17 / RFU, NOM1 / Fold change vs veh, NOM1 / RFU, ARL8B / Fold change vs veh, ARL8B / RFU, ZBTB11 / Fold change vs veh, ZBTB11 / RFU, TAMM41 / Fold change vs veh, TAMM41 / RFU, KIAA1704 /// LOC100996395 / Fold change vs veh, KIAA1704 /// LOC100996395 / RFU, ING1 / Fold change vs veh, ING1 / RFU, TRMT61B / Fold change vs veh, TRMT61B / RFU, FUBP3 / Fold change vs veh, FUBP3 / RFU, TP53 / Fold change vs veh, TP53 / RFU, TNKS2 / Fold change vs veh, TNKS2 / RFU, ZFP14 / Fold change vs veh, ZFP14 / RFU, ACTR2 / Fold change vs veh, ACTR2 / RFU, PPP3R1 / Fold change vs veh, PPP3R1 / RFU, PIK3R1 / Fold change vs veh, PIK3R1 / RFU, HNRNPA1 / Fold change vs veh, HNRNPA1 / RFU, RNF170 / Fold change vs veh, RNF170 / RFU, ZNF28 / Fold change vs veh, ZNF28 / RFU, RNGTT / Fold change vs veh, RNGTT / RFU, OGT / Fold change vs veh, OGT / RFU, BRD1 / Fold change vs veh, BRD1 / RFU, MARS / Fold change vs veh, MARS / RFU, ZNF655 / Fold change vs veh, ZNF655 / RFU, FAHD1 / Fold change vs veh, FAHD1 / RFU, BDP1 / Fold change vs veh, BDP1 / RFU, LRRCC1 / Fold change vs veh, LRRCC1 / RFU, ARID1A / Fold change vs veh, ARID1A / RFU, ZNF146 / Fold change vs veh, ZNF146 / RFU, ZNF330 / Fold change vs veh, ZNF330 / RFU, GPN3 / Fold change vs veh, GPN3 / RFU, C9orf123 / Fold change vs veh, C9orf123 / RFU, N4BP2L2 / Fold change vs veh, N4BP2L2 / RFU, ARFIP1 / Fold change vs veh, ARFIP1 / RFU, FAM179B / Fold change vs veh, FAM179B / RFU, BCL10 / Fold change vs veh, BCL10 / RFU, UHRF1BP1L / Fold change vs veh, UHRF1BP1L / RFU, BET1 / Fold change vs veh, BET1 / RFU, CNOT2 / Fold change vs veh, CNOT2 / RFU, ZNF268 / Fold change vs veh, ZNF268 / Fold change vs veh, ZNF507 / RFU, DGCR2 / Fold change vs veh, DGCR2 / RFU, WDSUB1 / Fold change vs veh, WDSUB1 / Fold change vs veh, HSP90B1 /// MIR3652 / RFU, ADSS / Fold change vs veh, ADSS / RFU, GK / Fold change vs veh, GK / RFU, ZNF148 / Fold change vs veh, ZNF148 / RFU, TAF9 / Fold change vs veh, TAF9 / RFU, SLC1A5 / Fold change vs veh, SLC1A5 / RFU, SLMO2 / Fold change vs veh, SLMO2 / RFU, ABCC4 / Fold change vs veh, ABCC4 / RFU, LOC101060439 /// RAP1B / Fold change vs veh, LOC101060439 /// RAP1B / RFU, RFX7 / Fold change vs veh, RFX7 / RFU, GTPBP10 / Fold change vs veh, GTPBP10 / RFU, CNEP1R1 / Fold change vs veh, CNEP1R1 / RFU, BIVM-ERCC5 /// ERCC5 / Fold change vs veh, BIVM-ERCC5 /// ERCC5 / RFU, ILF3 / Fold change vs veh, ILF3 / RFU 11762660_at / Fold change /veh 11762660_at / RFU VCAN (11757783_s_at) / Fold change /veh VCAN (11757783_s_at) / RFU DDX43 (11728927_at) / Fold change /veh DDX43 (11728927_at) / RFU KRT8 (11758188_x_at) / Fold change /veh KRT8 (11758188_x_at) / RFU NKD1 (11759106_at) / Fold change /veh NKD1 (11759106_at) / RFU SRD5A1 (11742802_a_at) / Fold change /veh SRD5A1 (11742802_a_at) / RFU TPSAB1 /// TPSB2 (11721975_s_at) / Fold change /veh TPSAB1 /// TPSB2 (11721975_s_at) / RFU GSTM3 (11746129_a_at) / Fold change /veh GSTM3 (11746129_a_at) / RFU IL23R (11737362_x_at) / Fold change /veh IL23R (11737362_x_at) / RFU TMEM51 (11727254_a_at) / Fold change /veh TMEM51 (11727254_a_at) / RFU PIWIL2 (11732686_x_at) / Fold change /veh PIWIL2 (11732686_x_at) / RFU ORM1 (11744905_x_at) / Fold change /veh ORM1 (11744905_x_at) / RFU CCDC152 (11743942_at) / Fold change /veh CCDC152 (11743942_at) / RFU ECM1 (11717891_a_at) / Fold change /veh ECM1 (11717891_a_at) / RFU IL23R (11748794_a_at) / Fold change /veh IL23R (11748794_a_at) / RFU TNFAIP8L3 (11732012_x_at) / Fold change /veh TNFAIP8L3 (11732012_x_at) / RFU MBOAT4 (11741988_at) / Fold change /veh MBOAT4 (11741988_at) / RFU 11764193_at / Fold change /veh 11764193_at / RFU TMEM53 (11763286_at) / Fold change /veh TMEM53 (11763286_at) / RFU MAGEB2 (11727129_at) / Fold change /veh MAGEB2 (11727129_at) / RFU TMEM200A (11744735_a_at) / Fold change /veh TMEM200A (11744735_a_at) / RFU CCDC152 (11751479_a_at) / Fold change /veh CCDC152 (11751479_a_at) / RFU FAM211A (11726209_a_at) / Fold change /veh FAM211A (11726209_a_at) / RFU RGS16 (11746705_a_at) / Fold change /veh RGS16 (11746705_a_at) / RFU VCAN (11755009_s_at) / Fold change /veh VCAN (11755009_s_at) / RFU RHOB (11743442_s_at) / Fold change /veh RHOB (11743442_s_at) / RFU RGS16 (11720943_a_at) / Fold change /veh RGS16 (11720943_a_at) / RFU RGS16 (11720944_at) / Fold change /veh RGS16 (11720944_at) / RFU, VPS4B / Fold change vs veh, VPS4B / RFU, CREB1 / Fold change vs veh, CREB1 / RFU, DNAJC13 / Fold change vs veh, DNAJC13 / RFU, GNAQ / Fold change vs veh, GNAQ / RFU, CDK5R1 / Fold change vs veh, CDK5R1 / RFU, ZRANB3 / Fold change vs veh, ZRANB3 / RFU, CUL4A / Fold change vs veh, CUL4A / RFU, CCNY / Fold change vs veh, CCNY / RFU, UFL1 / Fold change vs veh, UFL1 / RFU, COG3 / Fold change vs veh, COG3 / RFU, DIAPH2 / Fold change vs veh, DIAPH2 / RFU, SKA2 / Fold change vs veh, SKA2 / RFU, AFF3 / Fold change vs veh, AFF3 / RFU, LMF1 / Fold change vs veh, LMF1 / RFU, IPO11 / Fold change vs veh, IPO11 / RFU, DFFB / Fold change vs veh, DFFB / RFU, FOXP1 / Fold change vs veh, FOXP1 / RFU, CARD8 / Fold change vs veh, CARD8 / RFU, STRN3 / Fold change vs veh, STRN3 / RFU, ADK / Fold change vs veh, ADK / RFU, RASSF2 / Fold change vs veh, RASSF2 / RFU, WIPF1 / Fold change vs veh, WIPF1 / RFU, LARP1B / Fold change vs veh, LARP1B / RFU, RASA1 / Fold change vs veh, RASA1 / RFU, RB1 / Fold change vs veh, RB1 / RFU, PPFIA1 / Fold change vs veh, PPFIA1 / RFU, MAT2A / Fold change vs veh, MAT2A / RFU, CCT5 / Fold change vs veh, CCT5 / RFU, WDR92 / Fold change vs veh, WDR92 / RFU, CUX1 / Fold change vs veh, CUX1 / RFU, TTC7A / Fold change vs veh, TTC7A / RFU, TMEM135 / Fold change vs veh, TMEM135 / RFU, DEPTOR / Fold change vs veh, DEPTOR / RFU, CPM / Fold change vs veh, CPM / RFU, DNAJB6 / Fold change vs veh, DNAJB6 / RFU, CACNA2D3 / Fold change vs veh, CACNA2D3 / RFU, DTX4 / Fold change vs veh, DTX4 / RFU, TFCP2 / Fold change vs veh, TFCP2 / RFU, GMCL1 /// GMCL1P1 / Fold change vs veh, GMCL1 /// GMCL1P1 / RFU, AEBP2 / Fold change vs veh, AEBP2 / RFU, SNHG1 /// SNORD22 /// SNORD25 /// SNORD26 /// SNORD27 /// SNORD28 /// SNORD29 /// SNORD31 / Fold change vs veh, SNHG1 /// SNORD22 /// SNORD25 /// SNORD26 /// SNORD27 /// SNORD28 /// SNORD29 /// SNORD31 / Fold change (Aza/veh), C12orf56 (ProbeSet 11735607_a_at) / Fold change (ACY-1035/veh), C12orf56 (ProbeSet 11735607_a_at) / Fold change (Aza/veh), FGFR1OP (ProbeSet 11751329_s_at) / Fold change (ACY-1035/veh), FGFR1OP (ProbeSet 11751329_s_at) / Fold change (Aza/veh), VPS36 (ProbeSet 11739960_a_at) / Fold change (ACY-1035/veh), VPS36 (ProbeSet 11739960_a_at) / RFU SYPL1 (11715823_x_at) / Fold change /veh SYPL1 (11715823_x_at) / RFU IGFBP7 (11715501_s_at) / Fold change /veh IGFBP7 (11715501_s_at) / RFU REEP3 (11722064_at) / Fold change /veh REEP3 (11722064_at) / RFU IGLL1 (11728026_x_at) / Fold change /veh IGLL1 (11728026_x_at): dose or concentration left out as unconfirmed
# Settings: MV-4-11 cells, 48 hours
structure (smiles),measurement,value
Nc1ncn([C@@H]2O[C@H](CO)[C@@H](O)[C@H]2O)c(=O)n1 [azacitidine],Fold change /veh ACY1 (11761880_at),1.09
